From patent US20080311589A1, “METHOD OF HIGH-THROUGHPUT SCREENING OF MOLECULES AND COMPOUNDS FOR THEIR EFFECTS ON BIOLOGICAL AND CHEMICAL PROCESSES” (priority 1999, published 2008)
Entries after “also recorded” stand apart in the source; their conditions may differ.

Experiments:
[1] = system: Mv1Lu mink lung epithelial cells; test: 384 well anti-BrdU cytoblot; format: cell-based; settings: 384-well plate; antiproliferative agents 24 hours, then 10 μM BrdU 16 hours (FIG. 2)
Source text: FIG. 1. An immunodetection assay for DNA synthesis in high density arrays of mammalian cells. (a) Cartoon depiction of an anti-BrdU cytoblot. The thymine analog 5-bromodeoxyuridine (BrdU) is incorporated into the DNA of cells that are actively replicating their DNA. The cells are in the well, and BrdU is detected with a two step antibody binding procedure. The second antibody is conjugated to the enzyme horseradish peroxidase. In the presence of the chemiluminescent substrate luminol as well as hydrogen peroxide, light of wavelength 428 nm is generated. The light emission can be detected by exposing the plate to film. (b) A cytoblot can detect TGF-β's ability to prevent BrdU incorporation in mink lung epithelial cells. 2000 Mv1Lu mink lung epithelial cells were seeded in each well of a white, opaque 384 well plate. The cells were seeded in the indicated concentrations of TGF-β in 50 μL of DMEM with 1% fetal bovine serum (FBS), 100 units/mL penicillin G sodium, 100 μg/mL streptomycin sulfate and 100 μM each of the amino acids alanine, aspartic acid, glutamine, glycine, asparagine and proline (referred to throughout as 1% mink medium) and allowed to incubate at 37° C. with 5% CO2. After 16 hours, 5.5 μL of 100 μM BrdU in 1% mink medium was added to each well, for a final concentration of 10 μM BrdU. The cells were incubated at 37° C. with 5% CO2 for an additional 16 hours and then an anti-BrdU cytoblot protocol was performed (see protocol). Wells shown are magnified 4×.
FIG. 2. A cytoblot can detect the ability of numerous antiproliferative agents to inhibit BrdU incorporation. 2000 Mv1Lu mink lung epithelial cells were seeded in each well of a white, opaque 384 well plate. The cells were seeded in 40 μL of 1% mink media and immediately 40 μL of 2× stocks of the reagents shown was added to each well and the cells were allowed to incubate at 37° C. with 5% CO2. After 24 hours, 9 μL of 100 μM BrdU in 1% mink medium was added to each well, for a final concentration of 10 μM BrdU. The cells were incubated at 37° C. with 5% CO2 for an additional 16 hours and then an anti-BrdU cytoblot protocol was performed (see protocol). Wells shown are magnified 2.5×.
The ability of the cytoblot assay to detect changes in DNA synthesis was tested by measuring the incorporation of 5-bromodeoxyuridine (BrdU, Sigma Corporation, St. Louis, Mo., Cat.# B9285) into DNA in the presence or absence of the anti-mitogen transforming growth factor β (TGF-β). Mink lung cells, which are responsive to TGF-β, were seeded into each well of an opaque, white 384-well plate. The cells were subsequently treated with varying concentrations of TGF-β for 16 hours and then with 10 μM BrdU for 16 hours. […] The following protocols provide experimental detail. […]

HeLaS3 cells = test: BrdU and phosphonucleolin cytoblots in nocodazole-arrested HeLa cells; format: cell-based, human
Experimental: (§1) FIG. 11. Cytoblots can be used to screen for small molecule suppressors of anti-proliferative agents using the presence of phosphonucleolin, and for small molecules that induce exit from mitosis using the absence of phosphonucleolin. […] A549 human lung carcinoma cells were seeded at a density of 4000 cells in 40 μL of DMEM+ in each well of an opaque 384-well plate and incubated for 24 hours at 37° C. with 5% CO2. […] Cells were then incubated for 18 hours at 37° C. with 5% CO2 and a phosphonucleolin cytoblot was performed. (c) HeLaS3 cells were seeded at a density of 4000 cells in 40 μL of DMEM+ in each well of an opaque 384-well plate and incubated for 24 hours at 37° C. with 5% CO2. Cells were either left untreated or treated with 554 nM nocodazole for 14 hours to arrest cells in mitosis. Roscovitine was then added to the final concentrations indicated in a final volume of 50 μL and cells were incubated for 4 hours at 37° C. with 5% CO2. Finally, BrdU was added to a final concentration of 10 μM to those wells that were assayed for BrdU incorporation, and the cells incubated for an additional 6 hours at 37° C. with 5% CO2. BrdU and phosphonucleolin cytoblots were performed. […] HeLa cells were seeded at a density of 4000 cells per well in 40 μL of DMEM+ in each well of an opaque 384 well plate and incubated overnight at 37° C. with 5% CO2. Cells were then treated with either an equivalent amount of DMSO or nocodazole to a final concentration of 415 nM and the cells incubated for an additional 14 hours at 37° C. with 5% CO2. Roscovitine was then added to the final concentrations indicated and final volume of 50 μL and cells incubated for 4 hours 37° C. with 5% CO2. Finally, BrdU was added to a final concentration of 10 μM to those wells the be assayed for BrdU incorporation and the cells incubated for an additional 6 hours at 37° C. with 5% CO2. BrdU and TG-3 cytoblots were performed (see Protocols). Wells are shown magnified 4×. […] A549 human lung carcinoma cells were seeded at a density of 4000 cells in 40 uL of DMEM+ in each well of an opaque 384 well plate and incubated for 24 hours at 37° C. with 5% CO2. […] Cells were then incubated for 18 hours at 37° C. with 5% CO2 and a TG-3 cytoblot performed (see Protocol).
It should also be possible to find small molecules that induce exit from mitosis, resulting in a reduction in phosphonucleolin levels. As the nocodazole-induced arrest of cells in mitosis requires cyclin-dependent kinase (CDK) activity for the activation of the spindle assembly checkpoint, inhibition of CDK activity should suppress nocodazole-induced mitotic arrest (FIG. 11a). […]

[2] = system: A549 human lung carcinoma cells; test: phosphonucleolin cytoblot, suppressors of G2-arresting agents; format: cell-based; settings: for prevention of nocodazole mitotic arrest: simultaneous addition with 250 nM nocodazole, 14 μM ICRF-193, 20 μM roscovitine
Experimental: as §1
These purine analogs are known to be non-specific competitive inhibitors of 5′-adenosine triphosphate binding and therefore are likely to inhibit a wide range of kinases in the cell.

[3] = system: p3TPLux TGFβ-responsive reporter in 6F mink lung cells; test: luciferase assay, stably transfected p3TPLux; format: cell-based; settings: substance alone
Experimental: FIG. 19 graphs the dose-response of transcriptional activation of compounds 1a and 2 in the presence (*) or absence (•) of 400 pM TGFβ1. 20,000 6F mink lung cells ( ) were seeded in 384 well plates, allowed to attach for 16 hours in 10% mink medium, and were treated with the indicated concentrations of 1a or 2.
We screened more than 16,000 chemical compounds to identify those that specifically activated expression of a reporter gene (luciferase) under the control of TGFβ-responsive elements in stably transfected mammalian cells (mink lung epithelial cells). […] Given the structural similarity of compounds 1a-c, we expected that all three were operating through a common mechanism. We therefore continued testing on only one, compound 1a, as representative of the group.

[4] = system: mink lung epithelial cells; test: BrdU cytoblot assay for S-phase progression; format: cell-based
Source text: BRDU CYTOBLOT ASSAY: The BrdU cytoblot assay for S-phase progression was described previously by Stockwell et al. (Chem. Biol. 6:71, 1999; see also, U.S. Patent Application Ser. No. 60/094,305, incorporated herein by reference).
Compounds that mimic TGFβ activity would be expected to be capable of inducing cell cycle arrest or apoptosis, and in particular to block DNA replication, in responding cells. We therefore used an S-phase progression cytoblot assay to test whether our compounds could inhibit 5-bromodeoxyuridine (BrdU) incorporation into mink epithelial cells. […] Both compounds were therefore classified as true TGFβ mimics.

Compound: COC(=O)Nc1nc2ccc(C(=O)c3cccs3)cc2[nH]1 [nocodazole]
- BrdU incorporation [1]: effectively prevent BrdU incorporation
- accumulation of phosphonucleolin (HeLaS3 cells; HeLa cells, nocodazole 415 nM): induces the accumulation of phosphonucleolin
- incorporation of BrdU (HeLaS3 cells; HeLa cells, nocodazole 415 nM): prevents the incorporation of BrdU
- mitotic arrest (phosphonucleolin) ([2]; 250 nM nocodazole, 18 hours): arrested in mitosis

Compound: ICRF-193
- prevention of nocodazole mitotic arrest [2]: prevented this mitotic arrest

Compound: CC[C@H](CO)Nc1nc(NCc2ccccc2)c2ncn(C(C)C)c2n1 [roscovitine]
- exit from nocodazole-induced arrest (disappearance of phosphonucleolin) (HeLaS3 cells; nocodazole 14 hours, then roscovitine): cells exited from the nocodazole-induced arrest; also recorded: suppresses only the accumulation of phosphonucleolin
- BrdU incorporation after roscovitine (HeLaS3 cells; nocodazole 14 hours, then roscovitine, 10 μM BrdU 6 hours): did not begin to incorporate BrdU
- prevention of nocodazole mitotic arrest [2]: prevented this mitotic arrest

Compound: NC(=O)NO [hydroxyurea]
- BrdU incorporation [1]: effectively prevent BrdU incorporation

Compound: Oc1cccc2cccnc12 [8-hydroxyquinoline, 8-quinolinol]
- activation of the TGFβ-responsive reporter gene [3]: did not activate our reporter

Compound: CuCl2 [Cu^2+]
- BrdU incorporation [4]: inhibition of BrdU incorporation

Compound: Nc1ncc2[nH]cnc2n1 [2-aminopurine]
- suppression of ICRF-193-induced G2 arrest ([2]; 1 mM 2-aminopurine or 2 mM caffeine with ICRF-193 and 250 nM nocodazole, 18 hours): prevented the arrest in response to ICRF-193; also recorded: suppress a DNA damage-independent topoisomerase inhibitor-induced G2-checkpoint arrest
